Experimental findings from patent US8883847B2, “Compositions and methods of treatment using modulators of motoneuron diseases” (KineMed, Inc., priority 2006, dated 2014) are described below.

The test system of the test is SOD1-G93A TGN mice. Nature of the test: Noscapine-MK801 treatment of SOD1-G93A TGN mice: gait/stride length, disease onset, mortality. The test is classed as in vivo, mouse. To be noted: for Mortality: age at death; for Onset of motor deficits: age at onset. The protocol: FIG. 6. Noscapine-MK801 combination delays onset of disease and death in SOD1-G93A TGN mice. The one and two-drug treatments were started at an early (i.e., presymptomatic) stage of disease (7 weeks). SOD1-G93A TGN mice were treated 3 times a week with noscapine (0.2 mg/kg body weight) and/or MK-801 (12 mg/kg body weight/day). Mice received noscapine intraperitoneally and MK-801 in drinking water.
Female SOD-1 G93A TGN mice were obtained from Jackson laboratory (strain #2726). The controls were matched litter mates. Treatment groups were three per group. Noscapine was injected intraperitoneal in the thigh 3 times/week (0.2 mg/kg i.p.) and MK801 was administered continuously in drinking water (12 mg/kg/d). Gait analysis was done by the method of Wooley et al., Muscle Nerve 2005 32(1):43-50 and Carter et al. J. Neurosci., 19(8):3248-3257, hereby incorporated by reference in their entirety.
For clinical assessment endpoints scoring was selected as follows:
GROUP CLASSIFICATION: Presymptomatic
Clinical signs: Full mobility and no observable difference in behavior from age-matched controls (Gait or stride length analysis).
GROUP CLASSIFICATION: Onset
Clinical signs: Abnormal Gait or stride length analysis and hindlimb weakness: >40% reduction in stride length vs. age-matched littermates.
GROUP CLASSIFICATION: End Stage (euthanization)
Clinical signs: noticeable and complete hind limb paralysis (which in this strain occurs more on one limb than the other) and inability to right themselves in 5 sec time window. This stage starts usually as the mice are failing the gait analysis test and enter the End stage. Therefore, Transgenic SOD1-G93A TGN mice are euthanized at the onset of noticeable and complete hindlimb paralysis and inability to right themselves in 5 sec time window.

As for `COc1ccc2c(c1OC)C(=O)O[C@@H]2[C@H]1c2c(cc3c(c2OC)OCO3)CCN1C` [Noscapine, noscapine], the Mortality fell in the range of 112 to 119 days and the “Onset of motor deficits” value lay within 98 to 105 days.
Taken in the same sequence, the figures for `C[C@]12N[C@H](Cc3ccccc31)c1ccccc12` [MK-801, Dizocilipine] were 112 to 119 days and 105 to 112 days.
